# According to PMC5766608, “Target engagement imaging of PARP inhibitors in small-cell lung cancer” (Nature Communications, 2018):
# pIC50: −log10 of the molar value. Where two headings read alike, the source gives them in different places.
# What was measured:
# PARP2 [1] = target: T1, PARP2 (Homo sapiens, UniProt Q9UGN5); assay: PARP2 IC50 assay (BPS Bioscience, Strep-HRP, histone substrate); format: biochemical; details: footnote a: see Supplementary Fig. 2
# T1 construct: purchased BPS Bioscience, San Diego, CA
# Description: Assays were performed by BPS Bioscience, San Diego, CA. […] Data was reported by BPS a`s % enzyme activity curve from 0.03 nM or 0.1 nM to 1000 nM.
# PARP2 [2] = target: T1, PARP2; assay: PARP family enzyme activity inhibition screening (BPS Bioscience); format: biochemical; details: 100 nM inhibitor
# Description: (§1) Fig. 1 Properties of PARP inhibitors. a Structures of 5 clinical therapeutic PARP inhibitors and the 2 PARP imaging agents. b Heatmap visualizing enzymatic activity screening of 10 small molecules against 12 PARP enzymes at 100 nM concentration (for additional concentrations, see Supplementary Fig. 1)
# (§2) Assay was performed by BPS Bioscience, San Diego, CA. 100 µM DMSO solutions of each inhibitor were provided, and the assay was conducted after dilution to 100, 50, or 10 nM. […] Data was reported by BPS as % Enzyme Activity. Triplicates were combined to get a mean ± SD, and these were grouped and plotted onto a heatmap using Prism 7.
# (§3) Supplementary Figure 1 | PARP enzyme family binding assays at additional concentrations.
# (§4) histone substrate and biotin-labeled NAD+ at 100 nM (Fig. 1b), 50 nM (left) and 10 nM (right) for
# (§5) each inhibitor and each enzyme.
# PARP1 = target: T2, PARP1 (Homo sapiens, UniProt P09874); assay: as above; format: biochemical; details: 100 nM inhibitor
# T2 construct: purchased BPS Bioscience, San Diego, CA
# Description: as §1, §2, §3, §4, §5
# PARP3 = target: T3, PARP3 (Homo sapiens, UniProt Q9Y6F1); assay: as above; format: biochemical; details: 100 nM inhibitor
# T3 construct: purchased BPS Bioscience, San Diego, CA
# T3 sequence (Q9Y6F1 1-533): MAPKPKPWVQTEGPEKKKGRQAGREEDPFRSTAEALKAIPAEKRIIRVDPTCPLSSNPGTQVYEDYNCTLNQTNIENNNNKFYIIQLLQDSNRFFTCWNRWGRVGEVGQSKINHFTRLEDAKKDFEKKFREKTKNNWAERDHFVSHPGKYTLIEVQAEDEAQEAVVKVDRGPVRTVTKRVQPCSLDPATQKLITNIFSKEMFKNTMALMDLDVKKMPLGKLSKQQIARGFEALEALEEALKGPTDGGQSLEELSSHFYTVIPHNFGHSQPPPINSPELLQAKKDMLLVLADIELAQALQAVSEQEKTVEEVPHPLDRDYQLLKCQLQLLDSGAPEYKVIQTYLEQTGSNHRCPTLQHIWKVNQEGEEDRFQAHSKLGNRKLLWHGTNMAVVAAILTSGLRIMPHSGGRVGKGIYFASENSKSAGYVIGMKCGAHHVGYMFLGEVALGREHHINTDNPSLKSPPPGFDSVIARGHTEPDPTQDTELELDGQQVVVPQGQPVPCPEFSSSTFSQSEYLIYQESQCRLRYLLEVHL
# Description: as §1, §2, §3, §4, §5
# PARP1/2 [3] = details: olaparib 50 mg/kg; for Initial blocking (t = 1 h): talazoparib 0.3 mg/kg i.v., 60 min between drug and tracer
# Description: Error bars represent the SD
# All PET/CT images (n = 90) were acquired on an Inveon PET/CT (Siemens) and reconstructed scans were analyzed using the Inveon Research Workplace Software (Siemens). To acquire PET/CT images, animals were anesthetized with 2% isoflurane and positioned on the scanner bed. […] PET data were collected for 5–10 min, followed by CT.
# Activity concentration was quantified by averaging the mean values taken from VOIs drawn over the entire tumor as it appeared in the CT and portrayed as a mean %ID/g ± SD.
# PARP1/2 [4] = details: for Blocking of [18F]PARPi tumor uptake (target engagement): 30 min before tracer, PET 2 h later
# Text: Fig. 7 Variable dose blocking.
# The control group received no therapeutic inhibitor.
# PARP = details: cited from earlier work
# PARP1/2 [5] = assay: Ex vivo autoradiography of target engagement; details: olaparib 50 mg/kg, talazoparib 0.3 mg/kg, 30 min prior to tracer; tumor collected 2 h post tracer
# Description: Sections from 3 different tumor areas from each tumor (n = 3/group) were exposed to an autoradiography plate overnight and read the next day. ImageJ was used to quantify the signal intensity of each tissue. Adjacent sections were used for PARP1 IHC and H&E staining to confirm tissue identity and PARP1 expression.
# T1 sequence (Q9UGN5 whole entry): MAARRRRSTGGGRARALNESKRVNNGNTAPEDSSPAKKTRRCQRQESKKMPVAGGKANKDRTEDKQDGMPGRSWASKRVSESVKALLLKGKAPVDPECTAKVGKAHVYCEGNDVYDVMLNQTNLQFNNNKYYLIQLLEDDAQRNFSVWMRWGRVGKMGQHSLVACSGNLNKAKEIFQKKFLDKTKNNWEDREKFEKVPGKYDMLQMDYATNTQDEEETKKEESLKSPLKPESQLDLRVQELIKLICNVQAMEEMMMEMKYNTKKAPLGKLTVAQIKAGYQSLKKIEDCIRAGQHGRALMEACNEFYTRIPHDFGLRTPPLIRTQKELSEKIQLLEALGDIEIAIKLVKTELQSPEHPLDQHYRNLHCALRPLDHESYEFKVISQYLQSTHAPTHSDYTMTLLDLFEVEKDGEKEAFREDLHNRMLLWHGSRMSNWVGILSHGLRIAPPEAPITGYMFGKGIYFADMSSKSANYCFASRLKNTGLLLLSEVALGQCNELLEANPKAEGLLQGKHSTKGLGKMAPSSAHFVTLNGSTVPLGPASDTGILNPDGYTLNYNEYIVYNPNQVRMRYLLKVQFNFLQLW
# T2 sequence (P09874 whole entry): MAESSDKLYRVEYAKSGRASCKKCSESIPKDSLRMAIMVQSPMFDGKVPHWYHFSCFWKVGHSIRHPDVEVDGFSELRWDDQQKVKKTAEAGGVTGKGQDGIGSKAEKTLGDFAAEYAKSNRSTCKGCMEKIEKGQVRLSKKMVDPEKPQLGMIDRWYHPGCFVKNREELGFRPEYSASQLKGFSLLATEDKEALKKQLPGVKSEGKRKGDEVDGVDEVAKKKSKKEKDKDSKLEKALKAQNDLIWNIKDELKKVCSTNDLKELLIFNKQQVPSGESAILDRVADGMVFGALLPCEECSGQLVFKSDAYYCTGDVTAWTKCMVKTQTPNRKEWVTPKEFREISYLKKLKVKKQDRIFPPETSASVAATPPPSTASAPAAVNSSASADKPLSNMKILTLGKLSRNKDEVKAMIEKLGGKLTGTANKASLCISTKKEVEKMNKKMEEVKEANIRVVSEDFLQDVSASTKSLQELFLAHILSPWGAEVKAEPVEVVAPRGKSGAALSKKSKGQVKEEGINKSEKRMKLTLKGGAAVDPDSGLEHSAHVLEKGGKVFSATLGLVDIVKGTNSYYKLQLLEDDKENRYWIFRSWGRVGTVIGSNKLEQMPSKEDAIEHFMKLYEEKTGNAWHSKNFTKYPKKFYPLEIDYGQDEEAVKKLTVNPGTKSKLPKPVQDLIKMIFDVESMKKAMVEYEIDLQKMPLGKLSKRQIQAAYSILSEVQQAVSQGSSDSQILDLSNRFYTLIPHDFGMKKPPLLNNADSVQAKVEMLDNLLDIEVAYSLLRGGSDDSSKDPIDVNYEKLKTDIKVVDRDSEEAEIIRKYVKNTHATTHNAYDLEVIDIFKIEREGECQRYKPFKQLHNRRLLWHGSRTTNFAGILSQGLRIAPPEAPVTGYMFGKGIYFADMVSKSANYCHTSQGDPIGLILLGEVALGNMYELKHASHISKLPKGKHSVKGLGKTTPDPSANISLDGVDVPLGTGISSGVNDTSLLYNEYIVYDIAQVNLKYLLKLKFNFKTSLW
smiles,measurement,setting,value
CC1=CC(C)=[N+]2C1=Cc1ccc(CCC(=O)N3CCN(C(=O)c4cc(Cc5n[nH]c(=O)c6ccccc56)ccc4F)CC3)n1[B-]2(F)F [PARPi-FL],pIC50,PARP2 [1],9.51
same,inhibition at 0.1 µM,PARP2 [2],> 90%
same,inhibition at 0.1 µM,PARP1,> 90%
same,inhibition at 0.1 µM,PARP3,≤ 30%
"Cn1ncnc1[C@H]1c2n[nH]c(=O)c3cc(F)cc(c23)N[C@@H]1c1ccc(F)cc1 [Talazoparib, (8S,9R)-5-Fluoro-8-(4-fluorophenyl)-9-(1-methyl-1H-1,2,4-triazol-5-yl)-2,7,8,9-tetrahydro-3H-pyrido[4,3,2-de]phthalazin-3-one]",Initial blocking (t = 1 h),PARP1/2 [3],56%
same,Initial blocking (t = 1 h),PARP1/2 [3]; listed as talazoparib,56%
same,AUC,"PARP1/2 [3]; target engagement over 48 h, single dose, talazoparib 0.3 mg/kg",1021 %h
same,t1/2 (weighted),"PARP1/2 [3]; two phase decay fit of target engagement, talazoparib 0.3 mg/kg",9.8 h
same,Blocking of [18F]PARPi tumor uptake (target engagement),PARP1/2 [4]; 0.3 mg/kg i.v.,50%
same,Blocking of [18F]PARPi tumor uptake (target engagement),PARP1/2 [4]; 0.9 mg/kg i.v.,64%
same,Blocking of [18F]PARPi tumor uptake (target engagement),PARP1/2 [4]; 5 mg/kg i.v.,89%
same,Blocking of [18F]PARPi tumor uptake (target engagement),PARP1/2 [4]; 15 mg/kg i.v.,84%
same,50% blocking dose,"PARP1/2 [4]; single-phase decay curve fit, JHU-LX48 PDX tumor",0.36 mg/kg
same,"PARP trapping, in words",PARP,most effective PARP trapping agent
same,[18F]PARPi tumor uptake blocked (autoradiography),PARP1/2 [5],45%
O=C(c1ccc(F)cc1)N1CCN(C(=O)c2cc(Cc3n[nH]c(=O)c4ccccc34)ccc2F)CC1 [^19F-PARPi],Inhibition of PARP2 enzyme activity,PARP2 [2],> 90%
same,Inhibition of PARP1 enzyme activity,PARP1,> 90%
same,Inhibition of PARP3 enzyme activity,PARP3,≤ 30%
